Test results reported in paper PMC11141866, “Pyrimidine depletion enhances targeted and immune therapy combinations in acute myeloid leukemia” (JCI Insight, 2024).
Where “and” joins values, the source holds several entries; their conditions need not be identical. Equal values may be shown once.

Assays:
[1] = system: HL-60 disseminated CDX model; test: HL-60 CDX synergy with decitabine; type: in vivo, NCG mice; settings: Decitabine 0.4 mpk IP (4on/10off), HOSU53 10 mpk p.o. qd, or both; flag 0 = censored at day 82
Experimental: Female 8- to 12-week-old female NCG mice were engrafted with 1 × 10^7 cells via tail vein i.v. injection. At 14 days after engraftment (day 1 of treatment), mice (n = 10/arm) were randomized to receive p.o. qd and i.p. vehicle (p.o. qd 40% HPβCD and 4 on/10 off i.p. PBS), 10 mg/kg HOSU-53, i.p. 0.4 mg/kg decitabine on a 4-day on/10-day off cycle, or their combination till moribundity or end of study day 82.

THP1 = test: MTS proliferation assay, THP1; type: cell-based; settings: Homo sapiens, THP-1, 96 h, read-out: IC50 (MTS proliferation)
Experimental: (§1) A total of 10,000–20,000 cells from different AML lines or 50,000–75,000 cells of primary AML blasts were treated in a 96-well plate for 72 hours or 96 hours at 37°C, 5% CO2. CellTiter 96 Aqueous MTS reagent (Promega) was added to cells followed by a 3-hour incubation at 37°C, 5% CO2. The absorbance was measured at 490 nm using DTX 880 plate reader, and the IC50 was calculated using GraphPad Prism.

MOLM-13 = test: MTS proliferation assay, MOLM-13; type: cell-based; settings: Homo sapiens, MOLM-13, 96 h, read-out: IC50 (MTS proliferation)
Experimental: as §1

[2] = system: primary AML patient samples; test: Flow cytometry CD47 surface expression, primary AML samples; type: cell-based, human; settings: 500nM
Experimental: (§2) Cells were thawed in 50% FBS RPMI and then cultured in StemSpan (StemCell Technologies) media supplemented with human FLT3L, SCF, GM-CSF, G-CSF, IL-3, IL-6, TPO, and EPO cytokines for 7 days (LTC).
(§3) After 72 hours or 7 days of treatment of DHODHi, cells were collected and washed with PBS, blocked with human Fc block (BioLegend), and stained with antibodies for 30 minutes on ice. Antibodies were washed off and cells resuspended in FACS buffer (2% FBS, 2 mM NaN3, Dulbecco’s PBS) for analysis using BD LSRFortessa or Cytek Aurora spectral flow cytometer. Live/dead exclusion was done using LIVE/DEAD Fixable Near-IR (Invitrogen). All antibodies were purchased from BioLegend except CD47, which was purchased from BD Biosciences: CD11b clone M1/70, CD38 clone HIT2, CD14 clone M5E2, CD47 clone B6H12, CD33 clone WM53, CD3 clone UCHT1, CD19 clone HIB19, and CD45 clone HI30.
Supplemental Figure S.8. DHODHi modulates CD47 surface antigen expression. A) Representative flow cytometry overlay histogram plot for CD47 surface expression in MV4-11 cell line following a 72- […]
supplementation (experiment was done five independent times). B) Flow cytometry analysis of CD47 surface expression in primary AML patient samples (n=8-10) treated in vitro for seven days (long term culture, LTC). Data is shown as mean florescent intensity (MFI) of CD47 gated on live CD45+CD3-CD19- cells, error bars indicate mean with 95% confidence interval. C) Representative flow cytometry […]
modulation of CD47 post DHODHi treatment.
(1 picture or pasted object on this page, not shown here)

U937 = test: MTS proliferation assay, U937; type: cell-based; settings: Homo sapiens, U-937, 96 h, read-out: IC50 (MTS proliferation)
Experimental: as §1

[3] = system: primary AML patient samples; test: Flow cytometry viability, primary AML long-term culture; type: cell-based, human; settings: 500nM
Experimental: as §2, §3
Supplemental Figure S.2. […] A).
Flow cytometry analysis of viable primary AML patient samples (n=10) treated in vitro for seven days
(long term culture, LTC). […]

primary AML samples = test: Flow cytometry CD38 surface expression, primary AML samples; type: cell-based, human; settings: 500nM
Experimental: as §2, §3

Kasumi = test: MTS proliferation assay, Kasumi; type: cell-based; settings: Homo sapiens, 96 h, read-out: IC50 (MTS proliferation)
Experimental: as §1

OCI-AML3 = test: MTS proliferation assay, OCI-AML3; type: cell-based; settings: Homo sapiens, OCI-AML-3, 96 h, read-out: IC50 (MTS proliferation)
Experimental: as §1

For `Nc1ncn([C@H]2C[C@H](O)[C@@H](CO)O2)c(=O)n1` [Decitabine, decitabine, reference compound], the “Survival, day of study at event (per animal)” value [1] was 40 days and 41 days and 43 days and 45 days and 47 days.

With `Cc1c(-c2ccc(-c3ccccc3F)cc2)nc2ccc(F)cc2c1C(=O)O` [BRQ, brequinar] the IC50 (THP1) was 899 nM, the IC50 (MOLM-13) was 378 nM and the “CD47 MFI” value ([2]; Pt.13, DMSO 1665.27) was 1311.31. The “CD47 MFI” value ([2]; Pt.14, DMSO 585.79) was 845.1, the “CD47 MFI” value ([2]; Pt.15, DMSO 1002.16) was 847.29 and the “CD47 MFI” value ([2]; Pt.16, DMSO 1349.33) was 1999.15. The “CD47 MFI” value ([2]; Pt.17, DMSO 334.61) was 370.44, the “CD47 MFI” value ([2]; Pt.18, DMSO 869.17) was 1024.38 and the “CD47 MFI” value ([2]; Pt.19, DMSO 364.4) was 470.75. For the same compound, the “CD47 MFI” value ([2]; Pt.20, DMSO 398.54) was 499.32, the IC50 (U937) was 2000 nM and the “% Live (Near-IR negative)” value ([3]; Pt.13, DMSO 72.92) was 74.35%. The “% Live (Near-IR negative)” value ([3]; Pt.14, DMSO 68.39) was 69.22%, the “% Live (Near-IR negative)” value ([3]; Pt.15, DMSO 61.7) was 34.7% and the “% Live (Near-IR negative)” value ([3]; Pt.16, DMSO 45.99) was 44.41%. For the same compound, the “% Live (Near-IR negative)” value ([3]; Pt.17, DMSO 29.84) was 27.99%, the “% Live (Near-IR negative)” value ([3]; Pt.18, DMSO 29.72) was 24.94% and the “% Live (Near-IR negative)” value ([3]; Pt.19, DMSO 75.66) was 72.29%. For the same compound, the “% Live (Near-IR negative)” value ([3]; Pt.20, DMSO 67.67) was 44.18%, the “CD38 MFI” value (primary AML samples; Pt.13, DMSO 803.93) was 685.5 and the “CD38 MFI” value (primary AML samples; Pt.14, DMSO 15.61) was 20.07. The “CD38 MFI” value (primary AML samples; Pt.15, DMSO 168) was 776.17, the “CD38 MFI” value (primary AML samples; Pt.16, DMSO 274.9) was 196.87 and the “CD38 MFI” value (primary AML samples; Pt.17, DMSO 1637.55) was 2098.18. The “CD38 MFI” value (primary AML samples; Pt.18, DMSO 74.26) was 85.41, the “CD38 MFI” value (primary AML samples; Pt.19, DMSO 997.1) was 1760 and the “CD38 MFI” value (primary AML samples; Pt.20, DMSO 193.57) was 223.42. It also gave an IC50 (Kasumi) of 1180 nM and an IC50 (OCI-AML3) of 483 nM.
